Measurements taken from PMC4502414, “Transforming berberine into its intestine-absorbable form by the gut microbiota” (Scientific Reports, 2015).
Entries after “also recorded” stand apart in the source; their conditions may differ.

Assays:
[1] = dhBBR-to-BBR reversion in rat small intestine homogenate; format: in vitro ADME; details: 10-min incubation
Experimental: The rat duodenum, jejunum and ileum were collected separately, washed thoroughly with saline and dried. After being weighed, the tissues were homogenized with saline at a ratio of 1: 2 [w (g) /v (ml)]. DhBBR was dissolved in a mixture of methanol and DMSO at a ratio of 1:1 with a final concentration of 5 mg/ml. Ten microliters of dhBBR (5 mg/ml) was mixed with 1 ml of the homogenates. The samples were then centrifuged at 14,000 g for 5 min, and the supernatants were collected and mixed with an equal volume of ice-cold acetonitrile to terminate the reaction. The samples were centrifuged at 14,000 g for 5 min, and the supernatant was used for the HPLC analysis.

LDLR = assay: Drug effect on hepatic LDLR gene expression in HepG2 cells; format: cell-based, human; details: 12 h
Experimental: The HepG2 human hepatoma cell line was obtained from the American Tissue Culture Collection (ATCC, USA) and grown in Eagle’s Minimum Essential Medium (GIBCO) supplemented with 10% fetal bovine serum (GIBCO) at 37 °C. For the drug efficacy test, HepG2 cells were cultured for 24 h and then treated with BBR or dhBBR for 12 h. The compounds were freshly prepared in medium prior to use.
The total cellular RNAs were isolated with the SV Total RNA Isolation System (Promega, Madison, WI, USA) following the vendor’s instructions. The total RNAs were reversely transcribed into cDNAs, and quantitative real-time PCR was performed using a 2-Step RT-qPCR System (Promega, Madison, WI, USA), with GAPDH as an internal control. The normalized LDLR mRNA expression levels were plotted as fold levels compared with the untreated control. The following primers were used: LDLR forward, […]; LDLR reverse, […]; GAPDH forward, […]; and GAPDH reverse, […].

In the case of `COc1ccc2c(c1OC)CN1CCc3cc4c(cc3C1=C2)OCO4` [dhBBR, dihydroberberine], the dhBBR-to-BBR reversion ([1]; duodenum and jejunum homogenate) is reported as “almost completely”, the dhBBR-to-BBR reversion rate ([1]; ileum homogenate) is reported as “more than 80%” and the “up-regulation of LDLR mRNA expression compared with BBR” value (LDLR) is reported as “Reduced effect; also recorded: much lower than that of BBR”.
